What was measured:
[1] = tested on: systemic mastocytosis (SM) patients; assay: Phase II open-label study in SM patients; assay type: in vivo, human; conditions: 400 mg orally twice daily, first 23 pts, preliminary data
Method: A Phase II, open-label study was designed to evaluate the safety and efficacy of Compound (II) administered orally 400 mg twice daily. SM patients meeting specific disease criteria and with a clinical indication for treatment were enrolled. The results are based on preliminary data for the first 23 pts in this study. Results: The median age was 49 (range 33-78) yrs and the median time from diagnosis of SM was 27 (range 1 to 292) months. […] The median exposure to Compound (II) was 144 days. Treatment is ongoing for 18 (78%) pts; 5 (22%) discontinued, 3 (13%) for adverse events and 2 (9%) withdrew consent. Three (13%) responses were reported (2 incomplete remission and 1 minor response), based on serum tryptase, bone marrow mast cell counts and improvement of clinical symptoms.

[2] = tested on: GIST882 cells; assay: GIST882 cell proliferation assay (ATPLite luminescent ATP detection); assay type: cell-based; conditions: Homo sapiens; GIST882 cells (KIT K-642-E), 70 h incubation, mean value; read-out: mean IC50, inhibition of proliferation of GIST882 cells
Method: The effects of compounds on viability and proliferation of the cells is determined using the luminescent ATP Detection assay kit ATPLite™ from Perkin Elmer Life Sciences (Cat. No: 6016947) according to the instructions of the suppliers. This assay system is based on the production of light (luminescence) caused by the reaction of ATP with added luciferase and D-luciferin.
GIST882, is a human gastrointestinal stromal tumor (GIST) cell line expressing an activating KIT mutation (exon 13, K-642-E) (Tuveson D A, Willis N A, Jacks T, Griffin J D, Singer S, Fletcher C D, Fletcher J A, Demetri G D, STI571 inactivation of the gastrointestinal stromal tumor c-KIT oncoprotein: biological and clinical implications, Oncogene, 2001 Aug. 16; 20(36):5054-8). The GIST882 cells are cultivated in RPMI 1640 (Invitromex, Cat. No: L0501), supplemented with 15% FCS, and 2 mM glutamine (Gibco). […]
GIST882 cells are seeded into black 96-well tissue culture plates (Packard) at a density of 10000 cells per well in 50 μL complete medium and incubated for one day in order to allow for attachment of the cells. […] Subsequently, 50 μL substrate solution (luciferase and D-luciferin) is added and after 5 min shaking and 10 min dark-adaptation of the plates, light emission was measured with a Packard TopCount. […]

For `Cc1cn(-c2cc(NC(=O)c3ccc(C)c(Nc4nccc(-c5cccnc5)n4)c3)cc(C(F)(F)F)c2)cn1` [Compound (II), 4-methyl-3-[[4-(3-pyridinyl)-2-pyrimidinyl]amino]-N-[5-(4-methyl-1H-imidazol-1-yl)-3-(trifluoromethyl)phenyl]benzamide], the “discontinued for adverse events” value ([1]; median exposure 144 days) was 13%, the “safety and tolerability in pts with SM” value [1] was “acceptable safety and tolerability profile” and the “responses (based on serum tryptase, bone marrow mast cell counts and improvement of clinical symptoms)” value ([1]; 2 incomplete remission and 1 minor response) was 13%. It also gave an IC50 [2] of under 0.2 µM.

— patent publication US8673930B2, “Pyrimidylaminobenzamide derivatives for systemic mastocytosis” (Novartis AG, priority 2005, dated 2014)
